± gives the uncertainty stated by the source.
Assay: xn = mol fraction of the nth substance listed
Settings: 101.33 kPa

CCc1ccccc1 + CCO
viscosity [mPa·s]
Settings	x2 = 0.4	x2 = 0.6	x2 = 0.8	x2 = 0.9
303 K	0.625 ± 0.0058	0.732 ± 0.0067	0.842 ± 0.0076	0.9 ± 0.0081
313 K	0.547 ± 0.0052	0.627 ± 0.0058	0.706 ± 0.0065	0.752 ± 0.0069
323 K	0.482 ± 0.0046	0.54 ± 0.0051	0.602 ± 0.0056	0.632 ± 0.0057

Clc1cccc2ccccc12 + CCO
viscosity [mPa·s]
Settings	x1 = 0.0773	x1 = 0.2002	x1 = 0.3006	x1 = 0.3989	x1 = 0.5008	x1 = 0.5979	x1 = 0.7026	x1 = 0.8011	x1 = 0.9009
298.15 K	1.238 ± 0.017	1.455 ± 0.024	1.63 ± 0.033	1.779 ± 0.043	1.953 ± 0.055	2.11 ± 0.069	2.298 ± 0.086	2.47 ± 0.1	2.655 ± 0.12
303.15 K	1.119 ± 0.015	1.314 ± 0.022	1.471 ± 0.03	1.606 ± 0.039	1.757 ± 0.05	1.89 ± 0.062	2.045 ± 0.076	2.214 ± 0.093	2.389 ± 0.11
308.15 K	1.016 ± 0.014	1.192 ± 0.02	1.334 ± 0.027	1.456 ± 0.035	1.588 ± 0.045	1.714 ± 0.056	1.865 ± 0.07	2.006 ± 0.084	2.158 ± 0.1

COCCOCCOCCOCCOC + CCOC(=O)OCC
298.15 K
Settings	viscosity [mPa·s]
x1 = 0.0049	0.752 ± 0.013
x1 = 0.014	0.772 ± 0.013
x1 = 0.0274	0.796 ± 0.014
x1 = 0.044	0.824 ± 0.014
x1 = 0.068	0.879 ± 0.015
x1 = 0.0984	0.938 ± 0.016
x1 = 0.1416	1.029 ± 0.017
x1 = 0.2036	1.164 ± 0.019
x1 = 0.2814	1.348 ± 0.022
x1 = 0.3146	1.434 ± 0.023
x1 = 0.3497	1.519 ± 0.024
x1 = 0.3949	1.634 ± 0.026
x1 = 0.4546	1.798 ± 0.029
x1 = 0.5017	1.939 ± 0.031
x1 = 0.5551	2.083 ± 0.033
x1 = 0.5999	2.204 ± 0.035
x1 = 0.6478	2.349 ± 0.037
x1 = 0.691	2.478 ± 0.039
x1 = 0.7376	2.614 ± 0.041
x1 = 0.7849	2.76 ± 0.043
x1 = 0.8377	2.915 ± 0.045
x1 = 0.8758	3.028 ± 0.047
x1 = 0.9345	3.218 ± 0.05
x1 = 0.9719	3.328 ± 0.051
x2 = 0.0132	3.378 ± 0.052

Source: the CheMixHub viscosity set
